# Reference: patent US9428452B2, “Compounds” (Glaxo Group Limited, priority 2012, dated 2016)
# Marks after values point to notes of the source that are not given here.
# Assays:
# [1] = system: IL-17A mRNA expression; assay: Ex-vivo human skin model, IL-17A mRNA expression; assay type: cell-based; settings: for Percentage of inhibition of IL-17A mRNA expression: Th17 cytokine cocktail 24 h, RT-PCR
# Experimental: (§1) Fresh ex vivo human skin from healthy bariatric patients, that underwent abdominoplasty skin removal, was de-fatted and dermatomed at 750 μm. Dermatomed skin was incubated twice for 5-10 minutes at room temperature in PBS containing a antibiotic/antimycotic solution: Fungizone (Invitrogen #15290018), PSG (Fisher #BW17718R) and Gentamicin (Invitrogen #15750060). Skin was treated aseptically from this point on. Individual skin samples were obtained by 10 mm punch biopsy and placed in a 0.4 μm PCF membrane transwell (Millicell #PIHP01250) containing 30 μl of a 64% bovine collagen solution. After a 30 minute incubation at 37° C., which allows the collagen solution time to set, skin samples on transwells were transferred to 6-well plates (1 sample per well) and the lower chamber filled with 1 ml complete media (Cornification Media)+hydrocortisone (final concentration of 0.4 μg/ml) with or without test compounds at 10 μM (day −3) and allowed to rest overnight (16-18 h) at 37° C. Next, media was aspirated from the lower chamber, replaced with 1 ml complete media without hydrocortisone and incubated at 37° C. for 1 h. This constituted a ‘wash’ step. Following the hydrocortisone washout, media was again aspirated from the lower chamber and replaced with 1.0 ml complete media without hydrocortisone with or without GSK compounds at 10 μM (day −2). Cultures were incubated at 37° C. in a humidified chamber and media was refreshed one more day (day-1). The following day (day-0), cultures were stimulated for 24 h with a freshly made Th17 cytokine cocktail (CD3, 1 μg/ml, CD28, 2 μg/ml, IL-1b, 10 ng/ml, IL-6, 5 ng/ml, TGFb, 1 ng/ml, IL-21, 10 ng/ml, anti-IL-4, 1 μg/ml and anti-INFg, 1 μg/ml) with or without test compounds at 10 μM. Upon harvest (day +1), skin samples were minced with a razor blade and transferred to 1.5 ml RNAse-free tubes with 1 ml RNAlater solution until later analysis by RT-PCR (stored at −80 C).
# (§2) Total RNA was isolated from about 30-40 mg of tissue using Qiagen's (Cat #74106) Mini RNA Isolation kit. Briefly, tissue was homogenized in the Precellys-24 machine using 300 μL of RLT buffer supplemented with 1% 2-Beta-Mercapto-Ethanol at 6300 rpm for 30 seconds for 6 cycles with a 2-minute ice break. 600 μL of water containing Proteinase K was added to the homogenate and digested at 55 C for 15 minutes. Digested tissue was spun down for 3 minutes at 10,000×g and the supernantant was used for RNA isolation using Qiagen's RNeasy mini columns according to manufacturer's protocol. 100 ng of RNA was used as template in a 20 μL PCR volume using Applied Biosciences RNA-to-CT 1 Step kit (AB Catalog #4392938) as well as the specific TaqMan probe for each gene to be quantified. Life Technologies FAM labeled Probes Catalog Numbers are as follows: ACTb=Hs01060665_g1, IL-17A=Hs00174383_m1, IL-17F=Hs00369400_m1, IL-22=Hs01574154_m1. All probes used (except for ACTb) expand an Exon. Applied Biosciences' Master Mix has a ROX dye internal control. OneStepPlus PCR machine was used for both the RT step and the 40 amplification cycles. RNA levels of gene of interest's relative expression were calculated using the Delta Delta CT formula.
# (§3) First delta: Normalized to ACTb gene expression
# (§4) Second delta: Normalized to sample 13 (Day 0+DMSO) for the gene of interest.
# [2] = molecular target: T1, Human RORγ Ligand Binding Domain (RORγ-LBD) (Homo sapiens, UniProt P51449); assay: Dual Fluorescence Energy Transfer (FRET) assay: co-activator SRC1(2) peptide interaction with RORγ-LBD; assay type: biochemical; settings: RORγ-LBD / SRC1(2) peptide, read-out: mean pIC50 (converted)
# T1 construct: His6 with thrombin site) (N); made in house; host or cells: E. coli BL21(DE3), modified pET21a vector
# T1 sequence (P51449 263-518): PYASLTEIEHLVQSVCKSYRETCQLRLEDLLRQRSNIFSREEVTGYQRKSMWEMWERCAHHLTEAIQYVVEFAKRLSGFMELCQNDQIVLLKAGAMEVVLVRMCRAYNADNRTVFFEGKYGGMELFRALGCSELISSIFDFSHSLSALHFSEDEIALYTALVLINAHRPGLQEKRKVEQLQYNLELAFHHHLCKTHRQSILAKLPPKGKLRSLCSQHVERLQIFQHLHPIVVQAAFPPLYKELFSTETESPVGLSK
# Description: Dual Fluorescence Energy Transfer (FRET) Assay
# This assay is based on the knowledge that nuclear receptors interact with cofactors (transcription factors) in a ligand dependent manner. RORγ is a typical nuclear receptor in that it has an AF2 domain in the ligand binding domain (LBD) which interacts with co-activators.
# This assay measures ligand-mediated interaction of the co-activator peptide with the purified bacterial-expressed RORγ ligand binding domain (RORγ-LBD) to indirectly assess ligand binding. RORγ has a basal level of interaction with the co-activator SRC1(2) in the absence of ligand, thus, it is possible to find ligands that inhibit or enhance the RORγ/SRC1(2) interaction.
# Human RORγ Ligand Binding Domain (RORγ-LBD) was expressed in E. coli strain BL21(DE3) as an amino-terminal polyhistidine tagged fusion protein. DNA encoding this recombinant protein was sub-cloned into a modified pET21a expression vector (Novagen).
# Approximately 50 g E. coli cell pellet was resuspended in 300 mL of lysis buffer (30 mM imidazole pH 7.0 and 150 mM NaCl). Cells were lysed by sonication and cell debris was removed by centrifugation for 30 minutes at 20,000 g at 4° C. […] The clarified lysate was loaded onto a column (XK-26) packed with ProBond Nickel Chelating resin (InVitrogen), pre-equilibrated with 30 mM imidazole pH 7.0 and 150 mM NaCl. After washing to baseline absorbance with the equilibration buffer, the column was developed with a gradient from 30 to 500 mM imidazole pH 7.0. Column fractions containing the RORγ-LBD protein were pooled and concentrated to a volume of 5 mLs. The concentrated protein was loaded onto a Superdex 200 column pre-equilibrated with 20 mM Tris-Cl pH 7.2 and 200 mM NaCl. The fractions containing the desired RORγ-LBD protein were pooled together.
# Purified RORγ-LBD was buffer exchanged by exhaustive dialysis [3 changes of at least 20 volumes (>8000×)] against PBS [100 mM NaPhosphate, pH 8 and 150 mM NaCl]. […] The modified RORγ-LBD was dialyzed against 2 buffer changes—TBS pH 8.0 containing 5 mM DTT, 2 mM EDTA and 2% sucrose—each at least 20 times of the volume. The modified protein was distributed into aliquots, frozen on dry ice and stored at −80° C. The biotinylated RORγ-LBD was subjected to mass spectrometric analysis to reveal the extent of modification by the biotinylation reagent.
# Biotinylated SRC1(2) solution was prepared by adding an appropriate amount of biotinylated SRC1(2) from the 100 uM stock solution to a buffer containing 10 mM of freshly added DTT from solid to give a final concentration of 40 nM. An appropriate amount of Europium labeled Streptavidin was then added to the biotinylated SRC1(2) solution in a tube to give a final concentration of 10 nM. The tube was inverted gently and incubated for 15 minutes at room temperature. Twenty-fold excess biotin from the 10 mM stock solution was added and the tube was inverted gently and incubated for 10 minutes at room temperature.
# Biotinylated RORγ-LBD solution was prepared by adding an appropriate amount of biotinylated RORγ-LBD from the stock solution to a buffer containing 10 mM of freshly added DTT from solid to give a final concentration of 40 nM. An appropriate amount of APC labeled Streptavidin was then added to the biotinylated RORγ-LBD solution in a tube to give a final concentration of 20 nM. The tube was inverted gently and incubated for 15 minutes at room temperature. Twenty-fold excess biotin from the 10 mM stock solution was then added and the tube was inverted gently and incubated for 10 minutes at room temperature.
# The reaction mixtures were incubated for 5 minutes. […] The plates were incubated for 1 hour and then read on ViewLux in Lance mode for EU/APC.
# [3] = system: IL-17F mRNA expression; assay: Ex-vivo human skin model, IL-17F mRNA expression; assay type: cell-based; settings: for Percentage of inhibition of IL-17F mRNA expression: Th17 cytokine cocktail 24 h, RT-PCR
# Experimental: as §1, §2, §3, §4
# [4] = system: IL-22 mRNA expression; assay: Ex-vivo human skin model, IL-22 mRNA expression; assay type: cell-based; settings: for Percentage of inhibition of IL-22 mRNA expression: Th17 cytokine cocktail 24 h, RT-PCR
# Experimental: as §1, §2, §3, §4
# [5] = four different donors, compound 10 μM
smiles,measurement,setting,value
"CCc1ccc(N(CC(C)C)S(=O)(=O)c2ccc([C@H](O)CN3CCOCC3)c(CO)c2)cc1 [Example E125, N-(4-ethylphenyl)-4-(1-hydroxy-2-morpholinoethyl)-3-(hydroxymethyl)-N-isobutylbenzenesulfonamide]",Percentage of inhibition of IL-17A mRNA expression,"[1]; Skin Donor 1, compound 10 μM",65% *
same,Percentage of inhibition of IL-17A mRNA expression,"[1]; Skin Donor 2, compound 10 μM",92% *
same,Percentage of inhibition of IL-17A mRNA expression,"[1]; Skin Donor 3, compound 10 μM",65% *
same,Percentage of inhibition of IL-17A mRNA expression,"[1]; Skin Donor 4, compound 10 μM",93% *
same,gene transcription of il17a (result in words),[1]; [5],inhibited
same,IC50,[2],31.6 nM
same,Percentage of inhibition of IL-17F mRNA expression,"[3]; Skin Donor 1, compound 10 μM",39%
same,Percentage of inhibition of IL-17F mRNA expression,"[3]; Skin Donor 2, compound 10 μM",89% *
same,Percentage of inhibition of IL-17F mRNA expression,"[3]; Skin Donor 3, compound 10 μM",45%
same,Percentage of inhibition of IL-17F mRNA expression,"[3]; Skin Donor 4, compound 10 μM",80% *
same,gene transcription of il17f (result in words),[3]; [5],inhibited
same,Percentage of inhibition of IL-22 mRNA expression,"[4]; Skin Donor 1, compound 10 μM",52% *
same,Percentage of inhibition of IL-22 mRNA expression,"[4]; Skin Donor 2, compound 10 μM",52%
same,Percentage of inhibition of IL-22 mRNA expression,"[4]; Skin Donor 3, compound 10 μM",20%
same,Percentage of inhibition of IL-22 mRNA expression,"[4]; Skin Donor 4, compound 10 μM",70% *
same,gene transcription of il22 (result in words),[4]; [5],inhibited
